Experimental findings from patent publication US8642597B2, “Pyrazole compounds for controlling invertebrate pests” (BASF SE, priority 2007, dated 2014) are described below.

What all share (type): in vivo
For test [1], the system named is Cotton Aphid (aphis gossypii, Mixed Life Stages). The experiment in a line: Cotton aphid (aphis gossypii, mixed life stages), cotyledon dip test. Conditions: 120 h, mortality counts after 5 days, in comparison with untreated controls. A digest of the protocol:
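Cotton seedlings at the cotyledon stage were infested with mixed-stage aphids transferred overnight from infested leaves, then dipped in compound solution (50:50 acetone:water with 100 ppm surfactant) and dried. Mortality was counted after 5 days.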

The subject of test [2] is Green Peach Aphid (Myzus persicae, Mixed Life Stages). Nature of the test: Green peach aphid (Myzus persicae, mixed life stages), pepper leaf dip test. The note with it: foliar, 120 h, after 5 days, in comparison with untreated controls. The gist of the method:
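Pepper plants at the 2nd leaf-pair stage were infested with about 40 mixed-stage aphids, then leaf-dipped in graded concentrations of compound in 50:50 acetone:water with 100 ppm surfactant. Plants were held at about 25 °C, 20–40% RH, under 24 h light. Mortality relative to check plants was scored after 5 days.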

Test [3] deals with Cowpea Aphid (aphis craccivora). Nature of the test: Cowpea aphid (aphis craccivora), spray on potted cowpea plants. Conditions: population reduction assessed after 24, 72 and 120 hours, in comparison with untreated controls. The method, then:
The active compounds were formulated in 50:50 (vol:vol) acetone:water. The test solution was prepared at the day of use.
Potted cowpea plants colonized with 100-150 aphids of various stages were sprayed after the pest population had been recorded. Population reduction was assessed after 24, 72, and 120 hours.

The test system of a further test is Bean Aphid (Aphis fabae). The experiment in a line: Bean aphid (Aphis fabae), nasturtium plant dip test. The note with it: 72 h, after 3 days, in comparison with untreated controls. An excerpt: (§1) The active compounds were formulated in 50:50 (vol:vol) acetone:water and 100 ppm Kinetica™ surfactant.
Nasturtium plants grown in Metro mix in the 1st leaf-pair stage (variety ‘Mixed Jewel’) were infested with approximately 2-30 laboratory-reared aphids by placing infested cut plants on top of the test plants. The cut plants were removed after 24 hr. Each plant was dipped into the test solution to provide complete coverage of the foliage, stem, protruding seed surface and surrounding cube surface and allowed to dry in the fume hood. The treated plants were kept at about 25° C. with continuous fluorescent light. Aphid mortality is determined after 3 days.

The subject of test [4] is Vetch Aphid (Megoura viciae). The experiment in a line: Vetch aphid (Megoura viciae), bean leaf disk microtiterplate test. Conditions: foliar, 144 h, concentration of the test solution 2500 mg/L, 6 days. The gist of the method:
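Bean leaf disks on 0.8% agar with 2.5 ppm OPUS™ were sprayed with compound in 1:3 DMSO:water, then infested with 5–8 adult aphids. Kept 6 days at 23±1 °C, 50±5% RH under fluorescent light. Mortality and fecundity were scored visually from vital, reproduced aphids.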

Test [5] deals with Boll Weevil (Anthonomus grandis). The experiment in a line: Boll weevil (Anthonomus grandis), insect diet microtiter plate test. Conditions: 120 h, concentration of the test solution 2500 mg/L, egg and larval mortality after 5 days. A digest of the protocol: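 Compounds in 75:25 water:DMSO sprayed at 20 μl onto insect diet in wells holding 20–30 eggs, several concentrations, two replicates. Incubation 5 days at 23±1° C, 50±5% RH, followed by visual scoring of egg and larval mortality.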

Test [6] deals with Silverleaf Whitefly (bemisia argentifolii, adult). The experiment in a line: Silverleaf whitefly (bemisia argentifolii, adult), cotton cotyledon dip test. Conditions: 72 h, 3 days after treatment, in comparison with untreated controls. On the procedure: as §1
Selected cotton plants were grown to the cotyledon state (one plant per pot). The cotyledons were dipped into the test solution to provide complete coverage of the foliage and placed in a well-vented area to dry. Each pot with treated seedling was placed in a plastic cup and 10 to 12 whitefly adults (approximately 3-5 day old) were introduced. The insects were collected using an aspirator and an 0.6 cm, non-toxic Tygon® tubing (R-3603) connected to a barrier pipette tip. The tip, containing the collected insects, was then gently inserted into the soil containing the treated plant, allowing insects to crawl out of the tip to reach the foliage for feeding. The cups were covered with a reusable screened lid (150 micron mesh polyester screen PeCap from Tetko Inc). Test plants were maintained in the holding room at about 25° C. and 20-40% relative humidity for 3 days avoiding direct exposure to the fluorescent light (24 hour photoperiod) to prevent trapping of heat inside the cup. Mortality was assessed 3 days after treatment of the plants.

Test [7] has as its system Brown Planthopper (nilaparvata lugens). Nature of the test: Brown planthopper (nilaparvata lugens), rice seedling spray test. Conditions: after 72 hours, in comparison with untreated controls. On the procedure: The active compounds were formulated as a 50:50 (vol:vol) acetone:water solution. Surfactant (Alkamuls EL 620) was added at the rate of 0.1% (vol/vol).
Rice seedlings were cleaned and washed 24 h before spraying. Potted rice seedlings were sprayed with 5 ml test solution, air dried, placed in cages and inoculated with 10 adults. Treated rice plants were kept at 28-29° C. and relative humidity of 50-60%. Percent mortality was recorded after 72 hours.

Each structure is given as a SMILES string.

Turning to `O=C(Nc1cccnc1)c1cnn(-c2ccccc2)c1Cl` [Compound 123], the mortality at 300 ppm was ≥ 75% in test [1], ≥ 50% in test [2] and ≥ 75% in test [3]. Moreover, the mortality at 10 ppm in the test on Bean Aphid (Aphis fabae) is ≥ 90%. For the same compound, the mortality at 2500 µg/mL in test [4] is ≥ 80%.
For the compound `Cn1cc(C(=O)Nc2cccnc2)c(C(F)(F)F)n1` [Compound 13, 1-methyl-3-trifluoromethyl-1H-pyrazole-4-carboxylic acid pyridin-3-ylamide], the mortality at 10 ppm with Bean Aphid (Aphis fabae) was ≥ 90%. The mortality at 2500 µg/mL in test [5] was ≥ 50%.
On to `CN(C(=O)c1cn(C)nc1C(F)(F)F)c1cccnc1` [Compound 29, 1-Methyl-3-trifluoromethyl-1H-pyrazole-4-carboxylic acid methyl-pyridin-3-yl-amide], for which the mortality at 300 ppm in test [1] was ≥ 75%; in test [2], ≥ 50%; in test [3] it was ≥ 75%; in test [6], ≥ 50%. Further, the mortality at 10 ppm in the test with Bean Aphid (Aphis fabae) is ≥ 90%. For the same compound, the mortality at 2500 µg/mL in test [4] is ≥ 80%.
As for `CCc1c(C(=O)Nc2cccnc2)cnn1-c1ccc(Cl)cc1` [Compound 143], the values for the mortality at 300 ppm in test [1], in test [2] and in test [3] were ≥ 75%, ≥ 50% and ≥ 75%, respectively. The mortality at 10 ppm with Bean Aphid (Aphis fabae) is ≥ 90%. The mortality at 2500 µg/mL is ≥ 80% in test [4] and 100% in test [5].
In the case of `O=C(Nc1cccnc1)c1cnn(-c2ccc(F)cc2)c1C(F)F` [Compound 94], the mortality at 300 ppm in test [1] was ≥ 75%; in test [2] it was ≥ 50%; in test [3] it was ≥ 75%. For the same compound, the mortality at 10 ppm in the test on Bean Aphid (Aphis fabae) was ≥ 90%. Besides, the mortality at 2500 µg/mL in test [4] was ≥ 80%; in test [5] it was 100%.
Take `Cc1c(C(=O)Nc2cccnc2)cnn1-c1nccs1` [Compound 116]: the results for the mortality at 300 ppm in test [1], in test [2] and in test [3] were ≥ 75%, ≥ 50% and ≥ 75%, respectively. For the same compound, the mortality at 10 ppm in the test with Bean Aphid (Aphis fabae) was ≥ 90%. In addition, the mortality at 2500 µg/mL in test [4] was ≥ 80%; in test [5] it was 100%.
With `CN(C(=O)c1cn(C(F)F)nc1C(F)(F)F)c1cccnc1` [Compound 195], the mortality at 300 ppm was ≥ 75% in test [1], ≥ 50% in test [2], ≥ 75% in test [3] and ≥ 50% in test [7]. In addition, the mortality at 2500 µg/mL in test [4] is ≥ 80%.

By mortality is commonly meant the percentage killed. Low readings indicate more survivors, high ones fewer survivors.
